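Compound exposure: 48 hours, 5 concentrations, 96-well plates. TGI: total growth inhibition.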
Legend:
Experiment in all cases: NCI-60 cell line screen, 48 h
COLO 205 colon = tested on: COLO 205 colon
RXF 393 renal = tested on: RXF 393 renal
KM12 colon = tested on: KM12 colon
HOP-92 NSCLC = tested on: HOP-92 NSCLC
NCI-H522 lung = tested on: NCI-H522 lung
SW-620 colon = tested on: SW-620 colon
HL-60(TB) leukemia = tested on: HL-60(TB) leukemia
CAKI-1 renal = tested on: CAKI-1 renal
SR leukemia = tested on: SR leukemia

Compound	TGI (COLO 205 colon) [µM]	TGI (RXF 393 renal) [µM]	TGI (KM12 colon) [µM]	TGI (HOP-92 NSCLC) [µM]	TGI (NCI-H522 lung) [µM]	TGI (SW-620 colon) [µM]	TGI (HL-60(TB) leukemia) [µM]	TGI (CAKI-1 renal) [µM]	TGI (SR leukemia) [µM]
O=C1C(c2ccccc2)=C(c2ccccc2)C(c2ccc(CCCCCCc3ccc(C4=C(c5ccccc5)C(=O)C(c5ccccc5)=C4c4ccccc4)cc3)cc2)=C1c1ccccc1	> 100	79.7	> 100	> 100	> 100	> 100	> 100	–	–
O=c1nc2cc(-c3ccccc3)[nH]c2nn1-c1c(Cl)cc(Cl)cc1Cl	32.9	–	39.2	64	52.1	> 100	57.1	68.5	62.5
COc1ccc(O)c2c1C(=O)CCCC2=O	> 100	–	> 100	–	> 100	> 100	> 100	> 100	–
CCc1cccc(C)c1NC(=O)NS(=O)(=O)c1ccc(C)cc1	> 100	> 100	> 100	> 100	> 100	> 100	> 100	> 100	–
COc1ccc(NC(=O)C(=O)C2NC(=S)NC2=O)c(OC)c1 (stereo unspecified)	> 100	> 100	> 100	> 100	–	> 100	> 100	–	–
Cc1cc(C)nc(NS(=O)(=O)c2ccc(NC(=O)c3cccc4cc5ccccc5nc34)cc2)n1	> 100	> 100	84.9	–	54.3	> 100	–	> 100	–
Cc1cc(C)c(C(=O)OC(c2ccccc2)C(c2ccccc2)N2CCOCC2)c(C)c1 (stereo unspecified)	> 100	> 100	> 100	–	> 100	> 100	> 100	> 100	–
O=[N+]([O-])c1ccccc1C1N2CCCCC2[C@@H]2c3[nH]c4ccccc4c3CCN12 (stereo partly specified)	25.8	26.4	–	29.2	–	23.4	16.8	29.9	–
O=C1C2=C(c3ccccc31)C(c1ccccc1Cl)N1C(=O)CSC1=N2 (stereo unspecified)	> 100	–	> 100	> 100	88.7	> 100	> 100	> 100	–
COc1cc(Br)c(CC2=NCCc3cc(OC)c(OC)cc32)cc1OC	> 100	–	> 100	60.3	65.2	> 100	38	> 100	> 100
CC1=C2C(c3ccccc3)(c3ccccc3)C3C=CC2(C=N3)N(C(=O)NC2CCCCC2)C1=O (stereo unspecified)	29.3	–	32.1	27.4	–	31.9	30.2	26.1	37.7
COc1cccc(C2C(C(=O)Nc3cc(=O)n(C)c(=O)n3C)=C(C)NC(C)=C2C(=O)Nc2cc(=O)n(C)c(=O)n2C)c1O	> 100	> 100	> 100	> 100	> 100	> 100	> 100	> 100	–
Cc1ccc(Nc2ccc(Nc3ccc(C)cc3)c3c2C(=O)c2c(O)ccc(O)c2C3=O)cc1	> 100	> 100	> 100	> 100	> 100	> 100	> 100	> 100	–
CCC1(CN(C)C)CC/C(=C\c2ccc3c(c2)OCO3)C1=O (stereo unspecified)	> 100	> 100	> 100	> 100	> 100	> 100	> 100	> 100	–
CCOC(=O)C12CC1(C(=O)OCC)C1CCC2C1 (stereo unspecified)	> 100	–	–	95.2	–	> 100	> 100	> 100	> 100
Fc1ccccc1C1CC(C(c2ccccc2)c2ccccc2)=Nc2ccccc2S1 (stereo unspecified)	27.9	17.2	23.1	–	21.7	31	16.6	20.1	–
CCC1(OC(C)=O)C(=O)OCc2c1cc1n(c2=O)Cc2cc3ccccc3nc2-1 (stereo unspecified)	> 100	> 22.6	> 100	> 100	15.2	> 100	–	36	11.9
COC1=C(OC)CCC(/C(C#N)=C/c2ccc(OC)c(OC)c2)=C1	> 100	92.9	> 100	> 100	70.5	> 100	–	> 100	> 100
Cc1ccc(NC(=O)C(=O)Cc2nc3ccccc3o2)c(C)c1	> 100	> 100	> 100	> 100	–	> 100	–	> 100	–
CCCCCCCCCC(=O)CC(=O)c1c(O)cccc1O	35.8	72.1	> 100	–	89.7	83.2	45.3	> 100	–
COc1ccccc1/C=C\c1cc(OC)c(OC)c(OC)c1	16.9	36.6	> 100	81.6	45.5	> 100	20.1	> 100	–
O=c1cccccc1NCCCCNc1cccccc1=O	> 100	–	> 100	–	> 100	> 100	> 100	> 100	–
